Values after ≈ are worked out from the molar mass of the structure shown.
How the values were obtained:
Format in all cases: cell-based
[1] = system: 11 different species of fungi; test: Summary of Example 40 over the whole panel; conditions: 11 tested fungi, up to 4.00 μg/ml
Description: (§1) Each drug was dissolved in DMSO (1.0 mg/ml) as a stock solution and stored at −20° C. Just prior to use, each stock solution was thawed and diluted in DMSO to produce 6 different 100× concentrations. Potato dextrose agar was dissolved in distilled water (39 g/L) and sterilized at […] (250° F.) for 15 min. The agar solution was mixed with each drug (in a water bath at 60° C.) to make a series of final concentrations, i.e. 0.00, 0.25, 0.50, 1.00, 2.00, 4.00 μg/ml. The mixtures were then transferred to 24-well plates (1 ml/well). After the gel had formed, the fungus in PBS (spore count=1-5×10^4/ml) was inoculated by pipetting 10 μl onto each gel. The plates were incubated at 30° C. for different times, depending on the requirement of each species, e.g. 24 hours for Penicillium, Rhizopus, Tricothecium, Ulocladium, Absidia, Aspergilus, Caindida, Cunninghamella, 3 days for Scedosporium, and 5 days for Fonsecae and Phialophora.
(§2) “*” indicates better than or similar results to Amphotericin B. “NI” indicates no detectable inhibition.

Aspergillus f. [2] = test: Direct comparison of CMT-3 and Amphotericin B, agar plates (Example 39)
Penicillium spores = test: Fungistatic or fungicidal activity: pre-treatment of spores, dilution, regrowth on agar (Example 41)
Description: In the pre-treatment phase of the experiment, Penicillium spores were suspended in PBS to achieve a spore count of 10^7/ml. CMT-3 and Amphotericin B were dissolved in DMSO to reach a concentration of 1.0 mg/ml as stock solutions. 10 or 50 μl aliquots of these stock solutions were added to the incubation mixture (containing 1.0 ml of 10^7/ml of Penicillium spores in PBS) to achieve a final concentration of 10 μg/ml or 50 μg/ml, respectively, for both drugs. The various incubations of Penicillium were carried out for 24 hours at 30° C.
After the pre-treatment phase, the reaction mixtures were diluted 1000 times with PBS, reducing the concentration of both drugs to 0.01 μg/ml or 0.05 μg/ml, and reducing the Penicillium spore count to 10^4/ml. These drug concentrations of both CMT-3 and Amphotericin B would not be expected to inhibit the growth of the viable Penicillium spores.
Controls were then prepared. Before incubation, each tube was either not diluted further, or diluted to ½ or ¼ with PBS to produce tubes with three different spore counts, ie, 10^4/ml, or 0.5×10^4/ml, or 0.25×10^4/ml. These cultures were then inoculated on potato dextrose agar gels in 24-well plates, and incubated at 30° C. for 48 hours to determine the rate of growth of the fungus as described before.
The controls were prepared from the suspension in the pre-treatment phase containing only Penicillium spores 10^7/ml, and PBS. This control was diluted by 1000 times with PBS to produce a spore count of 10^4/ml. 1.0 ml of this diluted spore suspension was added to eight tubes. The stock solutions of CMT-3 and Amphotericin B, and DMSO were also diluted by 1000 times with PBS (the new concentration being 1.0 μg/ml for both drugs and 0.1% for DMSO), and 10 or 50 μl of these solutions was added into the above tubes. The final concentrations in each tube was either 0.01 μg/ml or 0.05 μg/ml for both drugs (CMT-3 or AmB), or 0.001% or 0.005% for DMSO. These tubes were further treated as described above to determine the growth of the fungus as controls.

Aspergillus f. [3] = test: Direct comparison of CMT-3 and Amphotericin B, agar plates (Example 39); remark: listed apart in the source
Description: The plates were prepared as described above, using […], 0.50, 1.00 and 2.00 concentrations of each of the drugs tested. DMSO was used as a control

Rhizopus Species = test: IC50 and MIC on microplate agar gels (Example 40); conditions: agar gel, 0.25-4.00 μg/ml, 30° C., 24 hours; NI = no detectable inhibition
Description: as §1, §2

Scedosporium Apiospermum = test: IC50 and MIC on microplate agar gels (Example 40); conditions: agar gel, 0.25-4.00 μg/ml, 30° C., 3 days; NI = no detectable inhibition
Description: as §1, §2

Candida Albicans = test: IC50 and MIC on microplate agar gels (Example 40); conditions: agar gel, 0.25-4.00 μg/ml, 30° C., 24 hours; NI = no detectable inhibition
Description: as §1, §2

Absidia Species = test: IC50 and MIC on microplate agar gels (Example 40); conditions: agar gel, 0.25-4.00 μg/ml, 30° C., 24 hours; NI = no detectable inhibition
Description: as §1, §2

Aspergilus Fumigatus = test: IC50 and MIC on microplate agar gels (Example 40); conditions: agar gel, 0.25-4.00 μg/ml, 30° C., 24 hours; NI = no detectable inhibition
Description: as §1, §2

Ulocladium Species = test: IC50 and MIC on microplate agar gels (Example 40); conditions: agar gel, 0.25-4.00 μg/ml, 30° C., 24 hours; NI = no detectable inhibition
Description: as §1, §2

Penicillium Species = test: IC50 and MIC on microplate agar gels (Example 40); conditions: agar gel, 0.25-4.00 μg/ml, 30° C., 24 hours; NI = no detectable inhibition
Description: as §1, §2

Fonsecae Species = test: IC50 and MIC on microplate agar gels (Example 40); conditions: agar gel, 0.25-4.00 μg/ml, 30° C., 5 days; NI = no detectable inhibition
Description: as §1, §2

SMILES: C[C@@H]1[C@H](O)[C@@H](C)/C=C/C=C/C=C/C=C/C=C/C=C/C=C/[C@H](O[C@@H]2O[C@H](C)[C@@H](O)[C@H](N)[C@@H]2O)C[C@@H]2O[C@](O)(C[C@@H](O)C[C@@H](O)[C@H](O)CC[C@@H](O)C[C@@H](O)CC(=O)O[C@H]1C)C[C@H](O)[C@H]2C(=O)O [AmB, Amphotericin B]
- Antifungal activity over the panel (summary in words) [1]: the same or less antifungal activity than CMT-3
- Growth grade at Conc. 0.25 μg/ml (Aspergillus f. [2]): 2 (50% reduction in growth of colonies compared to control.)
- Growth rate of Penicillium in control cultures with low drug concentration (Penicillium spores; 0.01 and 0.05 μl/ml, no pre-treatment): did not inhibit the growth
- Type of antifungal activity (fungistatic or fungicidal) (Penicillium spores; against Penicillium): fungistatic
- Growth of Penicillium on agar gels after pretreatment of spores (Penicillium spores; pretreatment with 10 and 50 μl/ml for 24 hours at 30° C., diluted 1000 times, 48 hours on agar): same rate of growth as PBS and DMSO controls
- Growth grade at Conc. 0.125 μg/ml (Aspergillus f. [3]; 0.125 μg/ml): 4 (Level of growth in the absence of anti-fungal agent (control).)
- Growth grade at Conc. 0.50 μg/ml (Aspergillus f. [3]; 0.50 μg/ml): 1 (75% reduction in growth in colonies compared to control.)
- Fungal growth inhibited (Aspergillus f. [3]; 1.0 μg/ml): 100%
- Growth grade at Conc. 1.00 μg/ml (Aspergillus f. [3]; 1.00 μg/ml): 0 (complete inhibition of growth.)
- Fungal growth inhibited (Aspergillus f. [3]; 2.0 μg/ml): 100%
- Growth grade at Conc. 2.00 μg/ml (Aspergillus f. [3]; 2.00 μg/ml): 0 (complete inhibition of growth.)
- IC50 (Rhizopus Species): 0.4 mg/L (≈ 0.433 µM)
- MIC (Rhizopus Species): 1.0 mg/L (≈ 1.08 µM)
- IC50 (Scedosporium Apiospermum): 4.0 mg/L (≈ 4.33 µM)
- MIC (Scedosporium Apiospermum): >4 mg/L
- IC50 (Candida Albicans): 0.5 mg/L (≈ 0.541 µM)
- MIC (Candida Albicans): 1.0 mg/L (≈ 1.08 µM)
- IC50 (Absidia Species): 1.0 mg/L (≈ 1.08 µM)
- MIC (Absidia Species): 4.0 mg/L (≈ 4.33 µM)
- IC50 (Aspergilus Fumigatus): 0.8 mg/L (≈ 0.866 µM)
- MIC (Aspergilus Fumigatus): 2.0 mg/L (≈ 2.16 µM)
- IC50 (Ulocladium Species): 1.0 mg/L (≈ 1.08 µM)
- MIC (Ulocladium Species): 2.0 mg/L (≈ 2.16 µM)
- IC50 (Penicillium Species): 0.12 mg/L (≈ 0.13 µM)
- MIC (Penicillium Species): 0.25 mg/L (≈ 0.271 µM)
- IC50 (Fonsecae Species): 4.0 mg/L (≈ 4.33 µM)
- MIC (Fonsecae Species): >4.0 mg/L
